Measurements reported in US20140031296A1, “NEW SYNTHETIC PEPTIDES AND THEIR USE” (PERGAMUM AB, priority 2011, published 2014).

How the values were obtained:
[1] = system: TNF-α production in LPS stimulated THP-1 cells; experiment: Inhibition of TNF-α production in LPS stimulated THP-1 cells (ELISA); format: cell-based, human; settings: mean relative secretion, basal = 0%; for TNF-α at 40 μM peptide: LPS-stimulated level without peptide = 100%; for TNF-α at 4 μM peptide / TNF-α at 10 μM peptide: stimulated = 100%
Procedure: After 6 hours of incubation at +37° C., 5% CO2 and in a humid atmosphere, the cell supernatants were collected, centrifuged and kept frozen in −20° C. until analyzed for TNF-α content by ELISA (R&D Systems, Minneapolis, Minn., USA). The results are presented as mean relative secretion (%), with stimulated TNF-α level without peptide added set to 100% and basal secretion set to 0% (Table 2).
After 6 hours of incubation, the cell supernatants were collected, centrifuged, and kept frozen in −20° C. until analyzed for TNF-α content by ELISA (R&D Systems, Minneapolis, Minn., USA). The results are presented as mean relative secretion (%), with stimulated TNF-α level without peptide added set to 100% and basal secretion set to 0% (Table 5).

S. aureus (CCUG 1800) = experiment: Minimal microbicidal concentration (MMC99) assay, S. aureus; format: cell-based; settings: 2 hours; for MMC99 μM in 50% SWF: 50% heat inactivated simulated wound fluid
Procedure: Antimicrobial Activity was Measured as Bactericidal Effect on S. aureus Using Minimal Microbicidal Concentration, MMC99, Assay)
S. aureus (#1800; CCUG, Gothenburg, Sweden) cultured on blood-agar plates [Columbia agar (Oxoid, Basingstoke, UK) supplemented with 5% defibrinated horse blood (National Veterinary Institute (SVA), Uppsala, Sweden)] were transferred to brain heart infusion broth (3.7% BHI; Difco, BD Diagnostics, Franklin Lakes, N.J., USA) and incubated in a shaker at 250 rpm+37° C. over night. The culture was thereafter be diluted 1:10 in fresh BHI broth and incubated for additional two hours to reach log-phase growth. The bacteria were pelleted and suspended in 1% BHI medium (BHI broth diluted 100 times in ultra-pure water) to a concentration of 10^7 bacteria/ml as estimated by measuring optical density at 600 nm. Peptides were serially diluted by two-fold steps from 160 μM to 1.25 μM in 1% BHI medium. The peptides (100 μl) were thereafter incubated with bacteria (5 μl á 10^7 bact./ml) for 2 hours at +37° C. Drops (5 μl) of the suspension were placed on blood agar plates. The blood agar plates were incubated over night at +37° C. The MMC99 values, i.e. the lowest peptide concentration needed to achieve a 99% reduction of viable bacteria, were recorded (Table 3). The concentration of the bacterial suspension used in the assay was confirmed by viable counts on blood agar plates.
S. aureus (#1800; CCUG, Gothenburg, Sweden) cultured on blood-agar plates [Columbia agar (Oxoid, Basingstoke, UK) supplemented with 5% defibrinated horse blood (National Veterinary Institute (SVA), Uppsala, Sweden)] were transferred to brain heart infusion broth (3.7% BHI; Difco, BD Diagnostics, Franklin Lakes, N.J., USA) and incubated in a shaker at 250 rpm+37° C. over night. The culture was thereafter be diluted 1:10 in fresh BHI broth and incubated for additional two hours to reach log-phase growth. The bacteria were pelleted and suspended in 1% BHI medium (BHI broth diluted 100 times in ultra-pure water) to a final concentration of 10^7 bacteria/ml as estimated by measuring optical density at 600 nm.
Peptides were serially diluted by two-fold steps from 400 μM to 0.78 μM in either 1% BHI medium or in 50% heat inactivated simulated wound fluid [SWF, containing 1 part 0.1% peptone (Oxoid, Basingstoke, UK) in saline and 1 part fetal bovine serum, diluted 2 times in ultra-pure water].
The peptides (100 μl) were thereafter incubated with bacteria (5 μl a 10^7 bact./ml) for 2 hours at +37° C. Drops (5 μl) of the suspension were placed on blood agar plates. The blood agar plates were incubated over night at +37° C. The MMC99 values, i.e. the lowest peptide concentration needed to achieve a 99% reduction of viable bacteria were recorded (Table 6). The concentration of the bacterial suspension used in the assay was confirmed by viable counts on blood agar plates.
The antimicrobial effects of the peptides 232 (SEQ ID NO: 78), and 220 (SEQ ID NO:67) were analysed by MMC99 (minimal microbicidal concentration) assay against S. aureus (CCUG 1800), MRSA (CCUG 41879), P. aeruginosa (ATCC 15442), E. coli (CCUG 31246), S. pyogenes (CCUG 4207), P. acnes (CCUG 1794T), S. epidermidis (ATCC12228), K. pneumoniae (ATCC 13883), A. baumannii (ATCC 19606), and C. albicans (ATCC 64549). The peptides were purchased from Biopeptide Company (San Diego, Calif., USA) and Bachem AG (Bubendorf, Switzerland) and results are presented in Table 8A and 8B respectively.
Peptides were serially diluted in two different assay medium, 1% BHI medium (brain-heart infusion medium) or 50% heat inactivated simulated wound fluid (SWF), and thereafter incubated with the microorganisms for 2 hours. Drops of the suspension were placed on blood agar plates. The MMC99 values, i.e. the lowest peptide concentration needed to achieve a 99% reduction of viable microorganisms, were recorded. As presented in Table 8, all the peptides have the ability to kill microorganisms frequently appearing in infections. […]

[2] = screen 1, 99% reduction of viable bacteria

| Sequence | TNF-α at 40 μM peptide ([1]; screen 1) [%] | MMC99 μM in 1% BHI medium (S. aureus (CCUG 1800); [2]) [µM] | TNF-α at 40 μM peptide ([1]; screen 2) [%] | MMC99 μM in 1% BHI medium (S. aureus (CCUG 1800); screen 2) [µM] | TNF-α at 4 μM peptide ([1]; screen 2) [%] | TNF-α at 10 μM peptide ([1]; screen 2) [%] | MMC99 μM in 50% SWF (S. aureus (CCUG 1800); screen 2) [µM] |
| --- | --- | --- | --- | --- | --- | --- | --- |
| CLNFKRGVRKIR [Peptide 141] | 109 | 20 | – | – | – | – | – |
| CFQWKRAMRKVR [Peptide 144] | 140 | 10 | – | – | – | – | – |
| GRRRRSVQWCA [Peptide 223] | – | – | 104.4 | 25 | – | – | – |
| QSEAEKCFQWQRNMRKVR [Peptide 107] | 108 | >160 | – | – | – | – | – |
| WCKLWRRLMRKVRR [Peptide 241] | – | – | – | 12.5 | 92.7 | 57.9 | 25 |
| FQWQRPIRKVR [Peptide 137] | 137 | >160 | – | – | – | – | – |
| WFQWQRNMRKVR [Peptide 128] | 104 | 20 | – | – | – | – | – |
| NQPTATKCFQWQRNMRKVR [Peptide 102] | 108 | >160 | – | – | – | – | – |
| FQWRPGIRKLR [Peptide 139] | 148 | 45 | – | – | – | – | – |
| QSLAHSLFQWLRNLRKVR [Peptide 218] | – | – | 9.2 | 6.25 | 81.8 | 55.7 | 50 |
| QSERKKRFQWLRNLRKVL [Peptide 206] | – | – | 51.0 | 12.5 | 96.9 | 92.9 | 100 |
| QSEATKLFQWQRNLRKVR [Peptide 115] | 119 | >160 | – | – | – | – | – |
| FQWQRRIRKVR [Peptide 124] | 128 | 20 | – | – | – | – | – |
| QSLARTFKQWARNLRKVL [Peptide 209] | – | – | 23.6 | 12.5 | 88.0 | 68.2 | 100 |
| RSLAQKLFQWLRNLRKVR [Peptide 219] | – | – | 7.3 | 6.25 | 68.5 | 44.0 | 12.5 |
| RLWRRLMRKVR [Peptide 238] | – | – | 76.5 | 12.5 | 83.9 | 89.2 | 100 |
| QSEATKRFQWLRNLRKVL [Peptide 119] | 10 | 20 | – | – | – | – | – |
| QSEATKRFQWLRNLRKVLKR [Peptide 211] | – | – | 62.8 | 6.25 | 100.7 | 89.8 | 100 |
